Data on ten molecules can be found in patent US20130071521A1, “REBAUDIOSIDE D SWEETENERS AND FOOD PRODUCTS SWEETENED WITH REBAUDIOSIDE D” (PEPSICO, INC., priority 2007, published 2013).

The conditions of assay [1]: cited from earlier work; for potency, times as sweet as sugar: commonly accepted potency figures.
The test system of assay [2] is sensory panel of twelve testers. The assay can be described thus: Sensory panel evaluation of initial sweetness characteristics of sweeteners in water (Example 1). It is filed as in vivo. To be noted: for initial sweetness perception: FIG. 2/FIG. 4; for initial bitterness perception: FIG. 3/FIG. 5. As to the method:
Sensory evaluations of different sweeteners at various concentrations were performed to provide comparative analysis of organoleptic characteristics of aqueous solutions of rebaudioside D, versus other sweeteners. The rebaudioside D was a stevia extract having a purity of at least 93% by weight rebaudioside D (Reb D). Initial sweetness characteristics of three concentrations of such Reb D in water were determined by a sensory panel of twelve testers. Sensory panels are well known to those of skill in the art, and comprise testers trained to evaluate the organoleptic attributes of comestibles. Typically, sensory panelists have been screened for their taste acuity and extensively trained in the use of standardized vocabulary to describe the appearance, aroma, flavor, mouthfeel and aftertaste of a wide variety of products, as well as scaling techniques to quantify the attributes. The numerical data generated by the sensory panel testers were then analyzed for their statistical significance.
The water employed in the tests of Example 1 comprised purified water as described in detail above, and having a pH of 7.0. The initial sweetness characteristics of 1200 parts per million (ppm) Reb D in water were compared to the initial sweetness characteristics of aqueous solutions of each of 1200 ppm rebaudioside A (Reb A), sucrose, aspartame and sucralose. The rebaudioside A was a stevia extract comprising a purity of 95% by weight rebaudioside A (PureCircle USA Inc., Oak Brook, Ill.). The specific attributes tested by the sensory panel comprised sweetness, thickness, astringency, bitterness, numbing, cooling and licorice.
The initial sweetness characteristics of other concentrations of rebaudioside D in water were also tested and compared to the same concentrations of rebaudioside A in water. […] FIGS. 2 through 5 illustrate the differences in the characteristics of sweetness and bitterness attributes between Reb D and Reb A.

For assay [3] the following is noted: Kinghorn (2002) page 138, cited from earlier work; for relative quality of taste, as compared to stevioside: stevioside is rated 0.
Assay [4] concerns sensory panel of twelve testers. Kind of assay: Sensory panel evaluation in water, noncarbonated beverage base and carbonated beverage base (Example 2). The settings on record: for interaction between the sweetener and the three beverage bases (initial sweetness attribute plots): water, noncarbonated and carbonated beverage base. On the set-up: Sweetness / Bitterness: scale not given here. It is filed as in vivo. As to the method:
Potential beverage base effects on the initial sweetness perception of rebaudioside D were investigated by performing tests of three concentrations of rebaudioside D (Reb D) in water, in a noncarbonated beverage base, and in a carbonated beverage base, by a sensory panel of twelve testers. The numerical data generated by the sensory panel testers were then analyzed for their statistical significance.
The water employed for the tests of this Example comprised the characteristics as described in Example 1. The noncarbonated beverage base comprised purified water, and citric acid in an amount sufficient to decrease the pH of the noncarbonated beverage base to 3.1. The carbonated beverage base comprised purified water, carbon dioxide, and citric acid in an amount sufficient to decrease the pH of the noncarbonated beverage base to about 3.1. The initial sweetness characteristics of 606 parts per million (ppm) Reb D in water were compared to the initial sweetness characteristics of 606 ppm Reb D in noncarbonated beverage base and 606 ppm Reb D in carbonated beverage base.
The specific attributes tested by the sensory panel comprised sweetness, thickness, astringency, bitterness, numbing, cooling, licorice, burn/tingle and mouthcoat.

Where [5] appears, read: 360 ppm (sucrose 5.4 brix), FIGS. 16-18.
The mark [6] stands for this setting: 606 ppm (sucrose 8.5 brix), FIGS. 13-15.
Where [7] appears, read: CSD (carbonated beverage base), 360 ppm.
[8] abbreviates: CSD (carbonated beverage base), 606 ppm.
[9] abbreviates: High Level, 1200 ppm, averaged across all three beverage bases.
Setting [10] is: Low-Medium Level, 360 ppm, averaged across all three beverage bases.
[11] abbreviates: Medium Level, 606 ppm, averaged across all three beverage bases.
The mark [12] stands for this setting: NCB (noncarbonated beverage base), 360 ppm.
Setting [13] is: NCB (noncarbonated beverage base), 606 ppm.

Molecules are shown by their SMILES. Where a SMILES comes first, the peptide text is derived from it.

Regarding `COC(=O)[C@H](Cc1ccccc1)NC(=O)[C@@H](N)CC(=O)O` [Aspertame] (HELM PEPTIDE1{D.F.[CO[*:1]]}$$$$V2.0), the “potency, times as sweet as sugar” value in assay [1] is given as 200 times as sweet as sugar.

With `COC(=O)[C@H](Cc1ccccc1)NC(=O)[C@H](CC(=O)O)NCCC(C)(C)C` [Neotame], the “potency, times as sweet as sugar” value in assay [1] is 8,000 times as sweet as sugar.

`C=C1C[C@@]23CC[C@H]4[C@@](C)(CCC[C@@]4(C)C(=O)O[C@@H]4O[C@H](CO)[C@@H](O)[C@H](O)[C@H]4O)[C@@H]2CC[C@]1(O[C@@H]1O[C@H](CO)[C@@H](O)[C@H](O[C@@H]2O[C@H](CO)[C@@H](O)[C@H](O)[C@H]2O)[C@H]1O[C@@H]1O[C@H](CO)[C@@H](O)[C@H](O)[C@H]1O)C3` [Reb A, rebaudioside A, reference compound]: the initial sweetness perception result is “about 60” in assay [2] (360 ppm in water) and “about 68” in assay [2] (1200 ppm in water). Also, the figures for the initial bitterness perception entry in assay [2] (360 ppm in water) and in assay [2] (1200 ppm in water) were “about 38” and “about 85”, respectively. For the same molecule, in assay [1] (background statement), the “sweetness relative to sucrose” value is on record as “approximately 200 times sweeter than sucrose”. Besides, in assay [1], the “potency, times as sweet as sugar” value is reported as 150-200 times as sweet as sugar. Moreover, the “sweetness (value reported by Kinghorn)” value in assay [3] is 242. Moreover, the “relative quality of taste, as compared to stevioside” value in assay [3] was “+2”. Further, the “interaction between the sweetener and the three beverage bases (initial sweetness attribute plots)” value in assay [4] (setting [5]) and in assay [4] (setting [6]) was “no significant interaction” throughout. Besides, the Bitterness in assay [4] (setting [7]) is given as 20.5; in assay [4] (setting [8]), 28.2; in assay [4] (setting [9]), 45.1; in assay [4] (setting [10]) it was 21.0; in assay [4] (setting [11]), 33.4; in assay [4] (setting [12]), 24.4. The Bitterness in assay [4] (setting [13]) is reported as 29.8; in assay [4] (Water, 360 ppm), 21.0; in assay [4] (Water, 606 ppm), 33.4. Besides, the Sweetness in assay [4] (setting [7]) worked out at 50.7; in assay [4] (setting [8]) it was 66.0; in assay [4] (setting [9]) it was 70.6; in assay [4] (setting [10]), 52.6; in assay [4] (setting [11]), 63.5; in assay [4] (setting [12]), 52.3. The Sweetness is recorded as 68.5 in assay [4] (setting [13]); 52.6 in assay [4] (Water, 360 ppm); 63.5 in assay [4] (Water, 606 ppm).

For `C[C@H](CC[C@@H](O[C@@H]1O[C@H](CO[C@@H]2O[C@H](CO)[C@@H](O)[C@H](O)[C@H]2O)[C@@H](O)[C@H](O)[C@H]1O[C@@H]1O[C@H](CO)[C@@H](O)[C@H](O)[C@H]1O)C(C)(C)O)[C@H]1CC[C@@]2(C)[C@@H]3CC=C4[C@@H](CC[C@H](O[C@@H]5O[C@H](CO[C@@H]6O[C@H](CO)[C@@H](O)[C@H](O)[C@H]6O)[C@@H](O)[C@H](O)[C@H]5O)C4(C)C)[C@]3(C)[C@H](O)C[C@]12C` [Mogroside V], the “potency, times as sweet as sugar” value in assay [1] is listed as 100-300 times as sweet as sugar.

Turning to `C=C1C[C@@]23CC[C@H]4[C@@](C)(CCC[C@@]4(C)C(=O)O[C@@H]4O[C@H](CO)[C@@H](O)[C@H](O)[C@H]4O)[C@@H]2CC[C@]1(O[C@@H]1O[C@H](CO)[C@@H](O)[C@H](O)[C@H]1O[C@@H]1O[C@H](CO)[C@@H](O)[C@H](O)[C@H]1O)C3` [stevioside], the “potency, times as sweet as sugar” value in assay [1] is reported as 100-250 times as sweet as sugar. Also, in assay [3], the “relative quality of taste, as compared to stevioside” value is reported as 0.

For `O=C1NS(=O)(=O)c2ccccc21` [Saccharin], in assay [1], the “potency, times as sweet as sugar” value is on record as 300 times as sweet as sugar.

Regarding `CC1=CC(=O)NS(=O)(=O)O1` [Acesulfame-K], in assay [1], the “potency, times as sweet as sugar” value is given as 200 times as sweet as sugar.

With `COc1ccc(CCC(=O)c2c(O)cc(O[C@@H]3O[C@H](CO)[C@@H](O)[C@H](O)[C@H]3O[C@@H]3O[C@@H](C)[C@H](O)[C@@H](O)[C@H]3O)cc2O)cc1O` [Neohesperidin dihydrochalcone], in assay [1], the “potency, times as sweet as sugar” value was 300 times as sweet as sugar.

Consider `OC[C@H]1O[C@H](O[C@]2(CCl)O[C@H](CCl)[C@@H](O)[C@@H]2O)[C@H](O)[C@@H](O)[C@H]1Cl` [Sucralose], for which the “potency, times as sweet as sugar” value in assay [1] is listed as 600 times as sweet as sugar.

For `OC[C@H]1O[C@@](CO)(O[C@H]2O[C@H](CO)[C@@H](O)[C@H](O)[C@H]2O)[C@@H](O)[C@@H]1O` [sucrose, reference compound], the “interaction between the sweetener and the three beverage bases (initial sweetness attribute plots)” value in assay [4] (setting [5]) and in assay [4] (setting [6]) was “no significant interaction” throughout.
